From the supplement of paper PMC10307832

Tests used:
Test in all cases: relative viability (nuclei count vs DMSO), 5 days (fraction); higher = more cells survive
[1] = compound: CC1=C(CC(=O)O)c2cc(F)ccc2/C1=C\c1ccc([S+](C)[O-])cc1 [Sulindac]
Method in brief: (§1)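 Only plates meeting two conditions passed: control CV below 25% and at least one doubling. Lung cancer cell lines, kept overnight at 37 °C in 1536-well plates, were pinned with five library-drug doses (not always all listed) √10 apart on vehicle-anchored plates and grown 5 days without medium change. A one-step fix, permeabilisation and Hoechst stain preceded 4× imaging and MetaXpress nuclear counting. Viability equals treated-well nuclei divided by vehicle-well nuclei, as the median over plates.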

[2] = compound: CN[C@@H]1C[C@H]2O[C@@](C)([C@@H]1OC)n1c3ccccc3c3c4c(c5c6ccccc6n2c5c31)C(=O)NC4 [Staurosporine]
Method in brief: as §1

[3] = compound: O=c1[nH]cc(F)c(=O)[nH]1 [5-Fluorouracil]
Method in brief: as §1

[4] = compound: CC1=C(CC(=O)O)c2cc(F)ccc2/C1=C\c1ccc([S+](C)[O-])cc1 [Sulindac] + COc1cc2c(Oc3ccc(NC(=O)C4(C(=O)Nc5ccc(F)cc5)CC4)cc3F)ccnc2cc1OCCCN1CCOCC1 [Foretinib] (partner 0.25 µM)
Method in brief: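 After 5 days of treatment, lung cancer cells in 1536-well plates were fixed and stained in a single step (final 0.05% Triton X-100, 1% formaldehyde, 1 ug/ml Hoechst) and their nuclei counted on 4× images. Treatment had been applied by pin tool the day after seeding as one drug alone or as a fixed anchor-drug dose with five library-drug doses (not always all listed) in √10 steps. Relative viability is the nuclei count of treated wells divided by that of vehicle wells, and values are medians of duplicate plates.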

Cell Line: IA-LM
- relative viability ([1]; 0.08 µM): 0.835
- relative viability ([1]; 0.253 µM): 1.07
- relative viability ([1]; 2.53 µM): 1.02
- relative viability ([1]; 8 µM): 1.01
- relative viability ([2]; 0.005 µM): 0.46
- relative viability ([2]; 0.01581 µM): 0.177
- relative viability ([2]; 0.05 µM): 0.17
- relative viability ([2]; 0.1581 µM): 0.107
- relative viability ([2]; 0.5 µM): 0.0831
- relative viability ([3]; 0.02 µM): 0.939
- relative viability ([3]; 0.2 µM): 0.519
- relative viability ([3]; 0.6325 µM): 0.295
- relative viability ([3]; 2 µM): 0.241
- relative viability ([4]; first compound 0.08 µM): 1.23
- relative viability ([4]; first compound 0.253 µM): 1.19
- relative viability ([4]; first compound 2.53 µM): 1.2
- relative viability ([4]; first compound 8 µM): 1.3

Cell Line: ABC-1
- relative viability ([1]; 0.08 µM): 1.07
- relative viability ([1]; 0.253 µM): 0.871
- relative viability ([1]; 0.8 µM): 0.981
- relative viability ([1]; 2.53 µM): 0.838
- relative viability ([1]; 8 µM): 1.3
- relative viability ([2]; 0.005 µM): 0.42
- relative viability ([2]; 0.01581 µM): 0.283
- relative viability ([2]; 0.05 µM): 0.262
- relative viability ([2]; 0.1581 µM): 0.172
- relative viability ([2]; 0.5 µM): 0.129
- relative viability ([3]; 0.02 µM): 1.04
- relative viability ([3]; 0.2 µM): 1.03
- relative viability ([3]; 0.6325 µM): 0.847
- relative viability ([3]; 2 µM): 0.788
- relative viability ([4]; first compound 0.08 µM): 1.02
- relative viability ([4]; first compound 0.253 µM): 0.96
- relative viability ([4]; first compound 0.8 µM): 1.02
- relative viability ([4]; first compound 2.53 µM): 0.867
- relative viability ([4]; first compound 8 µM): 1.33

Cell Line: NCI-H647
- relative viability ([1]; 0.08 µM): 1.32
- relative viability ([1]; 0.253 µM): 1.15
- relative viability ([1]; 0.8 µM): 0.791
- relative viability ([1]; 2.53 µM): 0.898
- relative viability ([1]; 8 µM): 1.11
- relative viability ([2]; 0.005 µM): 0.546
- relative viability ([2]; 0.01581 µM): 0.317
- relative viability ([2]; 0.05 µM): 0.295
- relative viability ([2]; 0.1581 µM): 0.0837
- relative viability ([2]; 0.5 µM): 0.059
- relative viability ([3]; 0.02 µM): 1
- relative viability ([3]; 0.2 µM): 1.11
- relative viability ([3]; 0.6325 µM): 0.842
- relative viability ([3]; 2 µM): 0.623
- relative viability ([4]; first compound 0.08 µM): 1.25
- relative viability ([4]; first compound 0.253 µM): 1.2
- relative viability ([4]; first compound 0.8 µM): 1.05
- relative viability ([4]; first compound 2.53 µM): 1.25
- relative viability ([4]; first compound 8 µM): 1.28

Cell Line: NCI-H1734
- relative viability ([1]; 0.08 µM): 1.17
- relative viability ([1]; 0.253 µM): 1
- relative viability ([1]; 0.8 µM): 0.787
- relative viability ([1]; 2.53 µM): 0.991
- relative viability ([1]; 8 µM): 1.07
- relative viability ([2]; 0.005 µM): 0.899
- relative viability ([2]; 0.01581 µM): 0.375
- relative viability ([2]; 0.05 µM): 0.291
- relative viability ([2]; 0.1581 µM): 0.151
- relative viability ([2]; 0.5 µM): 0.113
- relative viability ([3]; 0.02 µM): 0.93
- relative viability ([3]; 0.2 µM): 1.08
- relative viability ([3]; 0.6325 µM): 0.859
- relative viability ([3]; 2 µM): 0.461
- relative viability ([4]; first compound 0.08 µM): 0.864
- relative viability ([4]; first compound 0.253 µM): 0.956
- relative viability ([4]; first compound 2.53 µM): 1.03
- relative viability ([4]; first compound 8 µM): 0.958

Cell Line: LCLC-97TM1
- relative viability ([1]; 0.08 µM): 1.05
- relative viability ([1]; 0.253 µM): 1.04
- relative viability ([1]; 0.8 µM): 0.925
- relative viability ([1]; 2.53 µM): 0.813
- relative viability ([1]; 8 µM): 1.17
- relative viability ([2]; 0.005 µM): 1.02
- relative viability ([2]; 0.01581 µM): 0.282
- relative viability ([2]; 0.05 µM): 0.27
- relative viability ([2]; 0.1581 µM): 0.265
- relative viability ([2]; 0.5 µM): 0.212
- relative viability ([3]; 0.02 µM): 0.988
- relative viability ([3]; 0.2 µM): 1.07
- relative viability ([3]; 0.6325 µM): 0.729
- relative viability ([3]; 2 µM): 0.533
- relative viability ([4]; first compound 0.08 µM): 0.939
- relative viability ([4]; first compound 0.253 µM): 0.992
- relative viability ([4]; first compound 0.8 µM): 0.804
- relative viability ([4]; first compound 2.53 µM): 0.803
- relative viability ([4]; first compound 8 µM): 0.962

Cell Line: NCI-H2170
- relative viability ([1]; 0.08 µM): 1.13
- relative viability ([1]; 0.253 µM): 1.03
- relative viability ([1]; 0.8 µM): 0.884
- relative viability ([1]; 2.53 µM): 1.06
- relative viability ([1]; 8 µM): 0.991
- relative viability ([2]; 0.005 µM): 1.07
- relative viability ([2]; 0.05 µM): 0.766
- relative viability ([2]; 0.1581 µM): 0.384
- relative viability ([2]; 0.5 µM): 0.161
- relative viability ([3]; 0.02 µM): 1.02
- relative viability ([3]; 0.2 µM): 0.88
- relative viability ([3]; 0.6325 µM): 0.529
- relative viability ([3]; 2 µM): 0.464
- relative viability ([4]; first compound 0.08 µM): 1.1
- relative viability ([4]; first compound 0.253 µM): 0.547
- relative viability ([4]; first compound 0.8 µM): 1.05
- relative viability ([4]; first compound 2.53 µM): 0.978
- relative viability ([4]; first compound 8 µM): 1.01

Cell Line: NCI-H1793
- relative viability ([1]; 0.08 µM): 0.904
- relative viability ([1]; 0.253 µM): 0.993
- relative viability ([1]; 0.8 µM): 0.722
- relative viability ([1]; 2.53 µM): 0.953
- relative viability ([1]; 8 µM): 0.908
- relative viability ([2]; 0.005 µM): 0.921
- relative viability ([2]; 0.05 µM): 0.628
- relative viability ([2]; 0.1581 µM): 0.205
- relative viability ([2]; 0.5 µM): 0.152
- relative viability ([3]; 0.02 µM): 0.968
- relative viability ([3]; 0.2 µM): 1.18
- relative viability ([3]; 0.6325 µM): 0.985
- relative viability ([3]; 2 µM): 0.554
- relative viability ([4]; first compound 0.08 µM): 0.759
- relative viability ([4]; first compound 0.253 µM): 0.808
- relative viability ([4]; first compound 0.8 µM): 0.54
- relative viability ([4]; first compound 2.53 µM): 0.748
- relative viability ([4]; first compound 8 µM): 0.736

Cell Line: NCI-H322M
- relative viability ([1]; 0.08 µM): 0.951
- relative viability ([1]; 0.253 µM): 0.921
- relative viability ([1]; 0.8 µM): 0.869
- relative viability ([1]; 2.53 µM): 0.903
- relative viability ([1]; 8 µM): 0.989
- relative viability ([2]; 0.005 µM): 1.13
- relative viability ([2]; 0.01581 µM): 0.491
- relative viability ([2]; 0.05 µM): 0.58
- relative viability ([2]; 0.1581 µM): 0.387
- relative viability ([2]; 0.5 µM): 0.344
- relative viability ([3]; 0.02 µM): 0.954
- relative viability ([3]; 0.2 µM): 0.923
- relative viability ([3]; 0.6325 µM): 0.791
- relative viability ([3]; 2 µM): 0.651
- relative viability ([4]; first compound 0.08 µM): 0.992
- relative viability ([4]; first compound 0.253 µM): 0.996
- relative viability ([4]; first compound 0.8 µM): 0.882
- relative viability ([4]; first compound 2.53 µM): 0.954
- relative viability ([4]; first compound 8 µM): 1

Cell Line: RERF-LC-KJ
- relative viability ([1]; 0.08 µM): 1.09
- relative viability ([1]; 0.253 µM): 1.09
- relative viability ([1]; 0.8 µM): 0.814
- relative viability ([1]; 2.53 µM): 1.06
- relative viability ([1]; 8 µM): 1.02
- relative viability ([2]; 0.005 µM): 0.95
- relative viability ([2]; 0.01581 µM): 0.682
- relative viability ([2]; 0.05 µM): 0.501
- relative viability ([2]; 0.1581 µM): 0.237
- relative viability ([2]; 0.5 µM): 0.211
- relative viability ([3]; 0.02 µM): 1.05
- relative viability ([3]; 0.2 µM): 0.912
- relative viability ([3]; 0.6325 µM): 0.975
- relative viability ([3]; 2 µM): 0.828
- relative viability ([4]; first compound 0.08 µM): 1.03
- relative viability ([4]; first compound 0.253 µM): 0.934
- relative viability ([4]; first compound 0.8 µM): 0.65
- relative viability ([4]; first compound 2.53 µM): 0.856
- relative viability ([4]; first compound 8 µM): 0.927

Cell Line: EPLC-272H
- relative viability ([1]; 0.08 µM): 0.97
- relative viability ([1]; 0.253 µM): 0.797
- relative viability ([1]; 0.8 µM): 0.762
- relative viability ([1]; 2.53 µM): 0.857
- relative viability ([1]; 8 µM): 1.18
- relative viability ([2]; 0.005 µM): 0.781
- relative viability ([2]; 0.01581 µM): 0.192
- relative viability ([2]; 0.05 µM): 0.247
- relative viability ([2]; 0.1581 µM): 0.106
- relative viability ([2]; 0.5 µM): 0.0993
- relative viability ([3]; 0.02 µM): 0.732
- relative viability ([3]; 0.2 µM): 0.706
- relative viability ([3]; 0.6325 µM): 0.397
- relative viability ([3]; 2 µM): 0.262
- relative viability ([4]; first compound 0.08 µM): 0.669
- relative viability ([4]; first compound 0.253 µM): 0.763
- relative viability ([4]; first compound 2.53 µM): 0.711
- relative viability ([4]; first compound 8 µM): 0.745

Cell Line: A-427
- relative viability ([1]; 0.08 µM): 1.16
- relative viability ([1]; 0.253 µM): 1.01
- relative viability ([1]; 0.8 µM): 0.894
- relative viability ([1]; 2.53 µM): 1
- relative viability ([1]; 8 µM): 1.15
- relative viability ([2]; 0.005 µM): 0.799
- relative viability ([2]; 0.01581 µM): 0.236
- relative viability ([2]; 0.05 µM): 0.337
- relative viability ([2]; 0.1581 µM): 0.146
- relative viability ([2]; 0.5 µM): 0.139
- relative viability ([3]; 0.02 µM): 0.939
- relative viability ([3]; 0.2 µM): 1.03
- relative viability ([3]; 0.6325 µM): 0.9
- relative viability ([3]; 2 µM): 0.575
- relative viability ([4]; first compound 0.08 µM): 1.08
- relative viability ([4]; first compound 0.253 µM): 1.05
- relative viability ([4]; first compound 0.8 µM): 0.979
- relative viability ([4]; first compound 2.53 µM): 1.17
- relative viability ([4]; first compound 8 µM): 1.02
